Assays:
[1] = tested on: MDA-MB-231 cells; experiment: Cell proliferation assay (CellTiter-Glo), MDA-MB-231; assay type: cell-based; details: 72 h treatment, Celltiter-Glo luminescence
Procedure, shortened: (§1)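 MDA-MB-231 (RPMI-1640/10% FBS) and EVSA-T (MEM/10% FBS) cells, 10000 cells/well, exposed 72 h to compound at […]. Viability read by CellTiter-Glo luminescence after 15 min at room temperature. IC50 from control-normalised curve fitting.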

[2] = tested on: EVSA-T cells; experiment: Cell proliferation assay (CellTiter-Glo), EVSA-T; assay type: cell-based; details: 72 h treatment, Celltiter-Glo luminescence
Procedure, shortened: as §1

Compound | IC50 ([1]; Homo sapiens, MDA-MB-231, 72 h) [nM] | IC50 ([2]; Homo sapiens, EVSA-T, 72 h) [nM] | IC50 [1] [nM] | IC50 [2] [nM]
COCc1nc2c(Cc3ccc(F)cc3)cc3c(n2n1)C(C)(C)CN3C(=O)CN1C[C@@H](C)NC[C@@H]1CN1CCOC[C@H]1C [Compound 250, 1-(4-(4-fluorobenzyl)-2-(methoxymethyl)-8,8-dimethyl-7,8-dihydro-6H-pyrrolo[2,3-e][1,2,4]triazolo[1,5-a]pyridin-6-yl)-2-((2R,5R)-5-methy 1-2-(((R)-3-methylmorpholino)methyl)piperazin-1-yl)ethan-1-one] | 18 | 6.1 |  | 
C[C@@H]1CN(CC(=O)N2CC(C)(C)c3c2cc(Cc2ccc(F)cc2)c2nc(C(F)(F)F)cn32)[C@@H](CN2CCOC[C@H]2CF)CN1 [Compound 167, 1-(4-(4-fluorobenzyl)-8,8-dimethyl-2-(trifluoromethyl)-7,8-dihydro-6H-imidazo[1,2-a]pyrrolo[2,3-e]pyridin-6-yl)-2-((2R,5R)-2-((3-(fluoromethyl)morpholino)methyl)-5-methylpiperazin-1-yl)ethan-1-one] | 120 | 16 |  | 
CCOC(=O)c1cn2c3c(cc(Cc4ccc(F)cc4)c2n1)N(C(=O)CN1C[C@@H](C)NC[C@@H]1CN1CCOC[C@H]1C)CC3(C)C [Example 18, ethyl 4-(4-fluorobenzyl)-8,8-dimethyl-6-(2-((2R,5R)-5-methyl-2-(((R)-3-methylmorpholino)methyl)piperazin-1-yl)acetyl)-7,8-dihydro-6H-imidazo[1,2-a]pyrrolo[2,3-e]pyridine-2-carboxylate] | 74 | 14 |  | 
C[C@@H]1CN(CC(=O)N2CC(C)(C)c3c2cc(Cc2ccc(F)cc2)c2nc(CO)nn32)[C@@H](CN2CCOC[C@H]2C)CN1 [Compound 37, 1-(4-(4-fluorobenzyl)-2-(hydroxymethyl)-8,8-dimethyl-7,8-dihydro-6H-pyrrolo[2,3-e][1,2,4]triazolo[1,5-a]pyridin-6-yl)-2-((2R,5R)-5-methyl-2-(((R)-3-methylmorpholino)methyl)piperazin-1-yl)ethan-1-one] | 71 | 4 |  | 
C[C@@H]1CN(CC(=O)N2CC(C)(C)c3c2cc(Cc2ccc(F)cc2)c2nc(CF)nn32)[C@@H](CN2CCOC[C@H]2C)CN1 [Compound 144, 1-(4-(4-fluorobenzyl)-2-(fluoromethyl)-8,8-dimethyl-7,8-dihydro-6H-pyrrolo[2,3-e][1,2,4]triazolo[1,5-a]pyridin-6-yl)-2-((2R,5R)-5-methyl-2-(((R)-3-methylmorpholino)methyl)piperazin-1-yl)ethan-1-one] | 51 | 3 |  | 
C[C@@H]1CN(CC(=O)N2CC(C)(C)c3c2cc(Cc2ccc(F)cc2)c2ncnn32)[C@@H](CN2Cc3ccncc3C2=O)CN1 [Compound 97, 2-(((2R,5R)-1-(2-(4-(4-fluorobenzyl)-8,8-dimethyl-7,8-dihydro-6H-pyrrolo[2,3-e][1,2,4]triazolo[1,5-a]pyridin-6-yl)-2-oxoethyl)-5-methylpiperazin-2-yl)methyl)-1,2-dihydro-3H-pyrrolo[3,4-c]pyridin-3-one] | 47 | 3 |  | 
C[C@@H]1CN(CC(=O)N2CC(C)(C)c3c2cc(Cc2ccc(F)cc2)c2ncnn32)[C@@H](CN2CCOC3CC32)CN1 (stereo partly drawn) [Compound 202, 2-((2S,5R)-2-((2-oxa-5-azabicyclo[4.1.0]heptan-5-yl)methy 1)-5-methylpiperazin-1-yl)-1-(4-(4-fluorobenzyl)-8,8-dimethyl-7,8-dihydro-6H-pyrrolo[2,3-e][1,2,4]triazolo[1,5-a]pyridin-6-yl)ethan-1-one] | 34 | 17 |  | 
CC(O)c1nc2c(Cc3ccc(F)cc3)cc3c(n2n1)C(C)(C)CN3C(=O)CN1C[C@@H](C)NC[C@@H]1CN1CCOC[C@H]1C (stereo partly drawn) [Compound 154, 1-(4-(4-fluorobenzyl)-2-(1-hydroxyethyl)-8,8-dimethyl-7,8-dihydro-6H-pyrrolo[2,3-e][1,2,4]triazolo[1,5-a]pyridin-6-yl)-2-((2R,5R)-5-methy 1-2-(((R)-3-methylmorpholino)methyl)piperazin-1-yl)ethan-1-one] | 100 | 5 |  | 
C[C@@H]1CN(CC(=O)N2CC(C)(C)c3c2cc(Cc2ccc(F)cc2)c2nn(C4CCC4O)c(=O)n32)[C@@H](CN2CCOC[C@H]2C)CN1 (stereo partly drawn) [Compound 273B, 4-(4-fluorobenzyl)-2-(2-hydroxycyclobutyl)-8,8-dimethyl-6-(2-((2R,5R)-5-methyl-2-(((R)-3-methylmorpholino)methyl)piperazin-1-yl)acetyl)-2,6,7,8-tetrahydro-1H-pyrrolo[2,3-e][1,2,4]triazolo[4,3-a]pyridin-1-one] |  |  | 14 | 1.7
C[C@@H]1CN(CC(=O)N2CC(C)(C)c3c2cc(Cc2ccc(F)cc2)c2nn(C4CCC4O)c(=O)n32)[C@@H](CN2CCOC[C@H]2C)CN1 (stereo partly drawn) [Compound 273A, 4-(4-fluorobenzyl)-2-(2-hydroxycyclobutyl)-8,8-dimethyl-6-(2-((2R,5R)-5-methyl-2-(((R)-3-methylmorpholino)methyl)piperazin-1-yl)acetyl)-2,6,7,8-tetrahydro-1H-pyrrolo[2,3-e][1,2,4]triazolo[4,3-a]pyridin-1-one] | 23 | 1.24 |  | 
C[C@@H]1CN(CC(=O)N2CC(C)(C)c3c2cc(Cc2ccc(F)cc2)c2nc(C(N)=O)nn32)[C@@H](CN2CCOC[C@H]2C)CN1 [Example 31, 4-(4-fluorobenzyl)-8,8-dimethyl-6-(2-((2R,5R)-5-methyl-2-(((R)-3-methylmorpholino)methyl)piperazin-1-yl)acetyl)-7,8-dihydro-6H-pyrrolo[2,3-e][1,2,4]triazolo[1,5-a]pyridine-2-carboxamide] | 370 | 3 |  | 
C[C@@H]1CN(CC(=O)N2CC(C)(C)c3c2cc(Cc2ccc(F)cc2)c2nn(CC(F)(F)F)c(=O)n32)[C@@H](CN2CCOC[C@H]2C)CN1 [Compound 263, 4-(4-fluorobenzyl)-8,8-dimethyl-6-(2-((2R,5R)-5-methyl-2-(((R)-3-methylmorpholino)methyl)piperazin-1-yl)acetyl)-2-(2,2,2-trifluoroethyl)-2,6,7,8-tetrahydro-1H-pyrrolo[2,3-e][1,2,4]triazolo[4,3-a]pyridin-1-one] | 27 | 8.2 |  | 
C[C@@H]1CN(CC(=O)N2CC(C)(C)c3c2cc(Cc2ccc(F)cc2)c2ncnn32)[C@@H](CN2Cc3ncccc3C2=O)CN1 [Compound 95, 6-(((2R,5R)-1-(2-(4-(4-fluorobenzyl)-8,8-dimethyl-7,8-dihydro-6H-pyrrolo[2,3-e][1,2,4]triazolo[1,5-a]pyridin-6-yl)-2-oxoethyl)-5-methylpiperazin-2-yl)methyl)-6,7-dihydro-5H-pyrrolo[3,4-b]pyridin-5-one] | 12 | 0.4 |  | 
C[C@@H]1CN(CC(=O)N2CC(C)(C)c3c2cc(Cc2ccc(F)cc2)c2nc(CO)cn32)[C@@H](CN2CCOC[C@H]2C)CN1 [Example 19, 1-(4-(4-fluorobenzyl)-2-(hydroxymethyl)-8,8-dimethyl-7,8-dihydro-6H-imidazo[1,2-a]pyrrolo[2,3-e]pyridin-6-yl)-2-((2R,5R)-5-methyl-2-(((R)-3-methylmorpholino)methyl)piperazin-1-yl)ethan-1-one] | 180 | 21 |  | 

Reference: US20250179073A1, “TRICYCLIC HETEROCYCLE COMPOUNDS AS IAP ANTAGONISTS” (Ascentage Pharma (Suzhou) Co., Ltd., priority 2022, published 2025)
